Measurements as given in ChEMBL document CHEMBL1201862, “PubChem BioAssay data set” (2004).
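In this assay, cells in 96-well plates receive the compound at five concentrations for 48 hours. Endpoints are linearly interpolated between the surrounding concentrations. GI50: concentration for 50% inhibition of growth.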 Calls of active or inactive are those of the source. No stated cut-off is given here; in the data, active = GI50 up to about 1.1 µM and inactive = higher.

Legend:
Assay in all cases: NCI tumour cell line growth inhibition, 48 h
UACC-62 = system: UACC-62
NCI-H23 = system: NCI-H23
HOP-62 = system: HOP-62
NCI-H226 = system: NCI-H226
RXF 393 = system: RXF 393
HCC 2998 = system: HCC 2998
SW-620 = system: SW-620
SK-MEL-5 = system: SK-MEL-5
SK-OV-3 = system: SK-OV-3
SN12C = system: SN12C
SNB-75 = system: SNB-75
HCT-15 = system: HCT-15
HT-29 = system: HT-29
Hs-578T = system: Hs-578T
UO-31 = system: UO-31
SR = system: SR
LOX IMVI = system: LOX IMVI
786-0 = system: 786-0
DU-145 = system: DU-145
Malme-3M = system: Malme-3M
CAKI-1 = system: CAKI-1
MCF7 = system: MCF7
EKVX = system: EKVX
A549 = system: A549
SF-268 = system: SF-268
OVCAR-4 = system: OVCAR-4
OVCAR-3 = system: OVCAR-3
T47D = system: T47D
BT-549 = system: BT-549
ACHN = system: ACHN
KM12 = system: KM12
SF-295 = system: SF-295
OVCAR-5 = system: OVCAR-5
NCI/ADR-RES = system: NCI/ADR-RES
MOLT-4 = system: MOLT-4
MDA-MB-435 = system: MDA-MB-435
OVCAR-8 = system: OVCAR-8
MDA-N = system: MDA-N
SF-539 = system: SF-539
MDA-MB-231 = system: MDA-MB-231
IGROV-1 = system: IGROV-1
NCI-H460 = system: NCI-H460
COLO 205 = system: COLO 205
A498 = system: A498
K562 = system: K562
M14 = system: M14
SNB-19 = system: SNB-19
HCT-116 = system: HCT-116
RPMI-8226 = system: RPMI-8226
PC-3 = system: PC-3
UACC-257 = system: UACC-257
SK-MEL-2 = system: SK-MEL-2
U-251 = system: U-251
HOP-92 = system: HOP-92
TK-10 = system: TK-10
SK-MEL-28 = system: SK-MEL-28
HL-60 = system: HL-60
CCRF-CEM = system: CCRF-CEM
NCI-H522 = system: NCI-H522

CC(=O)OCC(OC(C)=O)C(OC(C)=O)C(OC(C)=O)C(C=NN(C(C)=O)S(=O)(=O)c1ccc(/C=C2\NC(=O)N(C)C2=O)cc1)OC(C)=O (stereo not given)
GI50 (UACC-62): 10.3 µM (inactive) | GI50 (NCI-H23): 36.1 µM (inactive) | GI50 (HOP-62): 26.3 µM (inactive) | GI50 (NCI-H226): 22.8 µM (inactive) | GI50 (RXF 393): 13.4 µM (inactive) | GI50 (HCC 2998): 16.3 µM (inactive) | GI50 (SW-620): 26.4 µM (inactive) | GI50 (SK-MEL-5): 29.6 µM (inactive) | GI50 (SK-OV-3): 31.4 µM (inactive) | GI50 (SN12C): 30.6 µM (inactive) | GI50 (SNB-75): 33.7 µM (inactive) | GI50 (HCT-15): 21.3 µM | GI50 (HT-29): 24.7 µM (inactive) | GI50 (Hs-578T): 25.3 µM (inactive) | GI50 (UO-31): 35.9 µM (inactive) | GI50 (SR): 11.8 µM (inactive) | GI50 (LOX IMVI): 11.9 µM (inactive) | GI50 (786-0): 23.7 µM (inactive) | GI50 (DU-145): 29.5 µM (inactive) | GI50 (Malme-3M): 17.5 µM (inactive) | GI50 (CAKI-1): 45.4 µM (inactive) | GI50 (MCF7): 30.2 µM (inactive) | GI50 (EKVX): 23.2 µM (inactive) | GI50 (A549): 47 µM (inactive) | GI50 (SF-268): 26.2 µM (inactive) | GI50 (OVCAR-4): 27 µM (inactive) | GI50 (OVCAR-3): 29.7 µM (inactive) | GI50 (T47D): 15.9 µM (inactive) | GI50 (BT-549): 12.4 µM (inactive) | GI50 (ACHN): 37.4 µM (inactive) | GI50 (KM12): > 100 µM (inactive) | GI50 (SF-295): 42.8 µM (inactive) | GI50 (OVCAR-5): 37.8 µM (inactive) | GI50 (NCI/ADR-RES): 73.3 µM (inactive) | GI50 (MOLT-4): 10.6 µM (inactive) | GI50 (MDA-MB-435): 33.1 µM (inactive) | GI50 (OVCAR-8): 27.2 µM (inactive) | GI50 (MDA-N): 32.6 µM (inactive) | GI50 (SF-539): 26.7 µM (inactive) | GI50 (MDA-MB-231): 33.5 µM (inactive) | GI50 (IGROV-1): 18.8 µM (inactive) | GI50 (NCI-H460): 18.8 µM (inactive) | GI50 (COLO 205): 29.3 µM (inactive) | GI50 (A498): 38 µM (inactive) | GI50 (K562): 36.3 µM (inactive) | GI50 (M14): 42.7 µM (inactive) | GI50 (SNB-19): 38.2 µM (inactive) | GI50 (HCT-116): 17.1 µM (inactive) | GI50 (RPMI-8226): 18.5 µM (inactive) | GI50 (PC-3): 27.9 µM (inactive) | GI50 (UACC-257): 44.8 µM (inactive) | GI50 (SK-MEL-2): 20.4 µM (inactive) | GI50 (U-251): 22.6 µM (inactive)

C=CCNC(=O)NC(=O)CSC1=NC(=O)C2(NN1)c1ccccc1-c1ccccc12
GI50 (UACC-62): > 10 µM (inactive) | GI50 (HOP-92): > 10 µM (inactive) | GI50 (NCI-H23): > 10 µM (inactive) | GI50 (TK-10): > 10 µM (inactive) | GI50 (HOP-62): > 10 µM (inactive) | GI50 (SK-MEL-28): > 10 µM (inactive) | GI50 (NCI-H226): > 10 µM (inactive) | GI50 (RXF 393): > 10 µM (inactive) | GI50 (HL-60): > 10 µM (inactive) | GI50 (HCC 2998): > 10 µM (inactive) | GI50 (SW-620): > 10 µM (inactive) | GI50 (SK-MEL-5): > 10 µM (inactive) | GI50 (SK-OV-3): > 10 µM (inactive) | GI50 (SN12C): > 10 µM (inactive) | GI50 (SNB-75): > 10 µM (inactive) | GI50 (HCT-15): > 10 µM | GI50 (HT-29): > 10 µM (inactive) | GI50 (Hs-578T): 9.51 µM (inactive) | GI50 (UO-31): 9.62 µM (inactive) | GI50 (SR): > 10 µM (inactive) | GI50 (LOX IMVI): > 10 µM (inactive) | GI50 (786-0): > 10 µM (inactive) | GI50 (DU-145): > 10 µM (inactive) | GI50 (Malme-3M): > 10 µM (inactive) | GI50 (CAKI-1): > 10 µM (inactive) | GI50 (MCF7): > 10 µM (inactive) | GI50 (EKVX): > 10 µM (inactive) | GI50 (A549): > 10 µM (inactive) | GI50 (SF-268): > 10 µM (inactive) | GI50 (OVCAR-4): > 10 µM (inactive) | GI50 (T47D): > 10 µM (inactive) | GI50 (BT-549): > 10 µM (inactive) | GI50 (ACHN): > 10 µM (inactive) | GI50 (KM12): > 10 µM (inactive) | GI50 (SF-295): > 10 µM (inactive) | GI50 (OVCAR-5): > 10 µM (inactive) | GI50 (NCI/ADR-RES): > 10 µM (inactive) | GI50 (MOLT-4): > 10 µM (inactive) | GI50 (MDA-MB-435): > 10 µM (inactive) | GI50 (OVCAR-8): > 10 µM (inactive) | GI50 (CCRF-CEM): > 10 µM (inactive) | GI50 (MDA-N): > 10 µM (inactive) | GI50 (SF-539): > 10 µM (inactive) | GI50 (MDA-MB-231): > 10 µM (inactive) | GI50 (IGROV-1): > 10 µM (inactive) | GI50 (NCI-H460): > 10 µM (inactive) | GI50 (NCI-H522): > 10 µM (inactive) | GI50 (COLO 205): > 10 µM (inactive) | GI50 (K562): > 10 µM (inactive) | GI50 (M14): > 10 µM (inactive) | GI50 (SNB-19): > 10 µM (inactive) | GI50 (HCT-116): > 10 µM (inactive) | GI50 (RPMI-8226): > 10 µM (inactive) | GI50 (PC-3): > 10 µM (inactive) | GI50 (UACC-257): > 10 µM (inactive)

CC(=O)N1CCN(C23OC4(N5CCN(C(C)=O)CC5)C5C6CC(C7C6C4C72)C53)CC1 (stereo not given)
GI50 (UACC-62): > 100 µM (inactive) | GI50 (HOP-92): > 100 µM (inactive) | GI50 (NCI-H23): > 100 µM (inactive) | GI50 (TK-10): > 100 µM (inactive) | GI50 (HOP-62): > 100 µM (inactive) | GI50 (NCI-H226): > 100 µM (inactive) | GI50 (RXF 393): > 100 µM (inactive) | GI50 (HL-60): > 100 µM (inactive) | GI50 (HCC 2998): > 100 µM (inactive) | GI50 (SW-620): > 100 µM (inactive) | GI50 (SK-MEL-5): > 100 µM (inactive) | GI50 (SK-OV-3): > 100 µM (inactive) | GI50 (SN12C): > 100 µM (inactive) | GI50 (SNB-75): > 100 µM (inactive) | GI50 (HCT-15): > 100 µM | GI50 (HT-29): > 100 µM (inactive) | GI50 (Hs-578T): > 100 µM (inactive) | GI50 (UO-31): > 100 µM (inactive) | GI50 (SR): > 100 µM (inactive) | GI50 (LOX IMVI): > 100 µM (inactive) | GI50 (786-0): > 100 µM (inactive) | GI50 (DU-145): > 100 µM (inactive) | GI50 (Malme-3M): > 100 µM (inactive) | GI50 (CAKI-1): > 100 µM (inactive) | GI50 (MCF7): > 100 µM (inactive) | GI50 (EKVX): > 100 µM (inactive) | GI50 (A549): > 100 µM (inactive) | GI50 (SF-268): > 100 µM (inactive) | GI50 (OVCAR-4): > 100 µM (inactive) | GI50 (OVCAR-3): > 100 µM (inactive) | GI50 (T47D): > 100 µM (inactive) | GI50 (BT-549): > 100 µM (inactive) | GI50 (ACHN): > 100 µM (inactive) | GI50 (KM12): > 100 µM (inactive) | GI50 (SF-295): > 100 µM (inactive) | GI50 (OVCAR-5): > 100 µM (inactive) | GI50 (NCI/ADR-RES): > 100 µM (inactive) | GI50 (MOLT-4): > 100 µM (inactive) | GI50 (MDA-MB-435): > 100 µM (inactive) | GI50 (OVCAR-8): > 100 µM (inactive) | GI50 (CCRF-CEM): > 100 µM (inactive) | GI50 (MDA-N): > 100 µM (inactive) | GI50 (SF-539): > 100 µM (inactive) | GI50 (MDA-MB-231): > 100 µM (inactive) | GI50 (IGROV-1): > 100 µM (inactive) | GI50 (NCI-H460): > 100 µM (inactive) | GI50 (NCI-H522): > 100 µM (inactive) | GI50 (COLO 205): > 100 µM (inactive) | GI50 (K562): > 100 µM (inactive) | GI50 (M14): > 100 µM (inactive) | GI50 (SNB-19): > 100 µM (inactive) | GI50 (HCT-116): > 100 µM (inactive) | GI50 (RPMI-8226): > 100 µM (inactive) | GI50 (PC-3): > 100 µM (inactive) | GI50 (UACC-257): > 100 µM (inactive) | GI50 (SK-MEL-2): > 100 µM (inactive) | GI50 (U-251): > 100 µM (inactive)
